The source of these data is US9000155B2, “Cyclic triazo sodium channel blockers” (University of Greenwich, priority 2009, dated 2015).

One series concerns the target T1, hERG (Homo sapiens, UniProt Q12809).
T1 construct: host or cells: HEK-293
Nature of the series: Inhibition of binding of [3H]astemizole to HEK-293 cells expressing hERG. The settings on record: for inhibition at 10 µM: human, HEK-293 cells expressing human recombinant hERG, probe [3H]astemizole. The protocol:
Another common side-effect marker is inhibition of human Ether-a-go-go Related Gene potassium (hERG) potassium channel (Inward rectifying, IKr) activity which can be fatal due to heart failure brought about by development of long QT syndrome. A useful preliminary screen to assess potential to affect this channel is assessed by measurement of inhibition of the binding of [3H]astemizole to cell membranes expressing hERG. Selected compounds are tested for this activity by measurement of inhibition @ 10 μM.
Compounds were sent to MDS Pharma for measurement of their inhibition @ 10 μM concentration of the binding of [^3H]astemizole to HEK-293 cells expressing human recombinant hERG.
A general note: hERG is a cardiac potassium channel; its block is linked to QT prolongation.

The test system of the next series is Sodium Channel, Site 2. Nature of the series: Inhibition of binding of [3H]BTX-B to Wistar rat brain.
In series [1] the test system is maximal electroshock-induced tonic convulsions. Briefly: Rat MES (Maximal ElectroShock) anticonvulsant test. It is filed as in vivo. The settings on record: for MES Results (% protection): n = 5 rats; for ED50: Rattus norvegicus, po. The protocol:
Male Wistar rats provided by BioLasco Taiwan (under Charles River Laboratories Technology Licensee) were used. Space allocation for 5 animals was 45×23×21 cm. Animals were housed in animal cages and maintained in a controlled temperature (21-23° C.) and humidity (50%-70%) environment with 12 hours light/dark cycles for at least three days in MDS Pharma Services—Taiwan Laboratory prior to use. Free access to standard lab chow for rats [MF-18 (Oriental Yeast Co., Ltd. Japan)] and reverse osmosis (RO) water were granted ad libitum. All aspects of this work including housing, experimentation and disposal of animals were performed in general accordance with the Guide for the Care and Use of Laboratory Animals (National Academy Press, Washington, D.C., 1996).
Test compounds were suspended/dissolved in 2% Tween 80 and dosed orally at a dose volume of 10 ml/Kg to groups of 5 Wistar male rats weighing 180+/−20 g, one hour before maximal electroshock (MES, 60 Hz sine wave, 150 mA, 200 msec duration) was applied through corneal electrodes. Appearance of maximal electroshock-induced tonic convulsions (MES) was determined for each animal. 50 percent or more (50%) inhibition of tonic convulsions by test substance indicates significant anticonvulsant activity.
Test substances (CEN-216, CEN-145, CEN-148, CEN-152 and CEN-154) at 14, 42 or 100 mg/kg were administered orally to groups of 5 Wistar derived male rats weighing 180±20 g.
In rat model of epilepsy (Maximal ElectroShock—MES), in which compounds were dosed orally one hour prior to ‘shock’, the ED50 (effective dose to protect 50% of rats from limb extension etc.) for CEN-216 is approx 9 mg/kg free base.
(In general: In the maximal electroshock model the usual endpoint is tonic extension of the hind limbs.)

The next series concerns sodium channel. The class given is biochemical, rat. As to conditions: read-out: [14C]guanidine flux Mean IC50. The text has this: The screening strategy is designed to select compounds with appropriate sodium channel blocking activity and low side effect liability. To this end all compounds are processed through the primary sodium channel assay (veratrine-evoked uptake of [^14C]guanidine into rat forebrain synaptosomes) and IC50 values computed from generated concentration-effect curves.
Following killing of animals by stunning and decapitation, the forebrain (whole brain less cerebellum/medulla) was rapidly dissected and transferred to a weighed tube containing ice-cold 0.25M sucrose.
Synaptosomes (heavy and light mitochondrial fraction containing synaptosomes) were prepared by transferring the forebrain (of known wet weight) to a glass Potter vessel to which 9 volumes ice-cold 0.25M sucrose had been added and homogenising, using a teflon pestle, by 8 ‘up and down strokes’ of a Braun Potter S motor driven homogeniser set to 900 rpm. The resulting homogenate was centrifuged at 1036×g at 4° for 10 min and the supernatant collected. The remaining pellet was resuspended, as above, in fresh ice-cold 0.25M sucrose and the centrifugation step repeated. The supernatant fractions were pooled and centrifuged at 40,000×g (average) at 4° for 15 min and the resulting pellet resuspended in the appropriate assay buffer at a concentration of 20-25 mg wet weight per ml appropriate assay buffer. […]

The next series is described as follows: Microsome stability. It is filed as in vitro ADME, human. As to conditions: 1 μM. The protocol: Compounds were sent to BioFocus for measurement of their stability @ 1 μM concentration following incubation with rat liver microsomes for 40 minutes @ 37°.
In series [2] the test system is 0.4 mm slices of rat hippocampus. It is filed as cell-based.
In the next series the test system is L-Type Calcium Channels. Nature of the series: L-type calcium channel binding ([3H]nitrendipine, rat cerebral cortex membranes). The text has this:
Compounds were sent to MDS Pharma for measurement of their inhibition @ […] of the binding of [^3H]nitrendipine to rat cerebral cortex membranes.

The subject of series [3] is maximal electroshock (MES). Nature of the series: Mouse MES model of epilepsy. It is filed as in vivo. The settings on record: 72 mg/Kg (free base) po. On the procedure: In mouse model of epilepsy (MES), compounds CEN-079 and CEN-216 were dosed orally (100 and 72 mg/kg free base respectively) @ 1 h, 6 h and 24 h prior to ‘shock).
Setting [4] is: extrapolated, read-out: hERG ([3H]astemizole) (extrapolated IC50 μM).
Setting [5] is: hERG IC50 (μM) (extrapolated from 10 μM inh'n), extrapolated from 10 μM inhibition, slope assumed 1.0.
Where [6] appears, read: extrapolated, read-out: Nach ([3H]BTX-B) (extrapolated IC50 μM).
[7] abbreviates: read-out: [3H]BTX-B binding Extrapolated IC50.
Where [8] appears, read: 1 h, read-out: Rat MES ED50 (very approx, from single 100 mg/kg dose), free base, one hour prior to shock.

SMILES strings stand for the structures. Several values for one entry are separate records, joined by “and”; a condition that tells them apart may be missing. Equal entries are not always repeated. Structures can show the parent of a compound that is named as a salt. Where two headings read alike, the source gives them in different places. Some results are limits rather than exact numbers.

Usually IC50 stands for the point on the concentration scale where inhibition reaches its midpoint. One may read the inhibition as how much of the control response was suppressed.

T1 sequence (Q12809 whole entry): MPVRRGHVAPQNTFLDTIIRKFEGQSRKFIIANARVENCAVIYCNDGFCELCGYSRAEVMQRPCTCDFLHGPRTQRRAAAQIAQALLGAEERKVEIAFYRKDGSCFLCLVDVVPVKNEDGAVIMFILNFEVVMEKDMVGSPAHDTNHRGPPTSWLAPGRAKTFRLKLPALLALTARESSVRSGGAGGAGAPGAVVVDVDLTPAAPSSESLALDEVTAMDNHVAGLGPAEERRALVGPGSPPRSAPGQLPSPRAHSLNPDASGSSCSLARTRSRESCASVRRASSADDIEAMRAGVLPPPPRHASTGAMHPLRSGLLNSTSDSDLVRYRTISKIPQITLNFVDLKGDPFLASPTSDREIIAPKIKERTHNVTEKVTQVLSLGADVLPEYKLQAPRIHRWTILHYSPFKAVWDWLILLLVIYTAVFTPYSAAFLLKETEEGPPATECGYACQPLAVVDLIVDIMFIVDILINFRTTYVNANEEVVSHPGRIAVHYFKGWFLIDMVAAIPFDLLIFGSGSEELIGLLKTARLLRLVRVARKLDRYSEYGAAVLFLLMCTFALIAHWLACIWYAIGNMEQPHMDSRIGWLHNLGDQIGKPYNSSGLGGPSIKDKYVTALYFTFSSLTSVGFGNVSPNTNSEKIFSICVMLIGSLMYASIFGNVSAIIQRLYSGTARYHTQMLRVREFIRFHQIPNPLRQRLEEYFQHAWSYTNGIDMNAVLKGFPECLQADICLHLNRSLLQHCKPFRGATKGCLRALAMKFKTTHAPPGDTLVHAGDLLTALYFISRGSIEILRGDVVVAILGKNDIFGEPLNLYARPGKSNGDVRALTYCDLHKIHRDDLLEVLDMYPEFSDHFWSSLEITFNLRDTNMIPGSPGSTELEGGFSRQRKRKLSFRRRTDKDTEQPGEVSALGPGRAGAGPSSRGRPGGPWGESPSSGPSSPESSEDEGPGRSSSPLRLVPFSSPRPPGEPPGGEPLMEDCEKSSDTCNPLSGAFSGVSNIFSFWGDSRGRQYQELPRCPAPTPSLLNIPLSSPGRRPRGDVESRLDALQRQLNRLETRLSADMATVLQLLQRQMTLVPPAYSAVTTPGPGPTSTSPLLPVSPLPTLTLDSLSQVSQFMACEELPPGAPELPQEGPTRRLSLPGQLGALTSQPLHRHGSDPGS

`N=c1nc(N)c(-c2cccc(Cl)c2Cl)nn1CC(F)(F)C(F)F` [CEN-218]: the IC50 on hERG (setting [4]) was 40 µM; on hERG (setting [5]) it was 40 µM; on Sodium Channel, Site 2 (setting [6]), below 0.5 µM; at Sodium Channel, Site 2 (setting [7]), below 0.5 µM. Also, the inhibition at 10 µM on hERG amounted to 20%. The “[3H]BTX-B binding % inhibition (@ 10 μM)” value in the series with Sodium Channel, Site 2 came out at 108%. In addition, the “Rat MES (anticonvulsant in vivo) % protection” value in series [1] (100 mg/Kg (free base) po) is 40 @ 100%; in series [1] (100 mg/Kg (free base) po, listed as 218), 40%. Moreover, in series [1] (100 mg/kg po), the “MES Results (% protection)” value is 40%. Further, the ED50 in series [1] (setting [8]) is around 120 mg/kg.

For the compound `N=c1nc(N)c(-c2cc(Cl)cc(Cl)c2Cl)nn1CC(Cl)(Cl)Cl` [CEN-248], the “[3H]BTX-B binding % inhibition (@ 10 μM)” value in the series with Sodium Channel, Site 2 turned out to be 27%. In addition, the IC50 was 27 µM on Sodium Channel, Site 2 (setting [6]) and 27 µM at Sodium Channel, Site 2 (setting [7]). Also, the “Rat MES (anticonvulsant in vivo) % protection” value in series [1] (30 mg/Kg (free base) po) is recorded as 100% protection @ 30. For the same compound, the “MES Results (% protection)” value in series [1] (30 mg/kg po) is given as 100%.

As to `Nc1nnc(-c2cccc(Cl)c2Cl)c(N)n1` [CEN-1, 3,5-Diamino-6-(2,3-dichlorophenyl)-1,2,4-triazine, reference compound], the IC50 in the series with sodium channel was found to be 219 µM. In the series “Microsome stability”, the “Microsome stability (human) % metabolized (40 min incubation 37°)” value was determined as 20%. In addition, the “MES Results (% protection)” value in series [1] (3 mg/kg po) is on record as 60%; in series [1] (10 mg/kg po), 100%; in series [1] (25 mg/kg po), 100%.

For the compound `NC1=N[C@H](O)[C@H]2[C@H]3O[C@]4(O)O[C@@H]([C@@H](O)[C@@]2(N1)[C@@H]4O)[C@]3(O)CO` [TTX, tetrodotoxin], the “% protection (v 1 μM TTX) (mean ± sem)” value in series [2] stood at 100%.

For the compound `O=C1NC(=O)C(c2ccccc2)(c2ccccc2)N1` [DiPhenylHydantoin, Diphenylhydantoin sodium salt, reference compound], the “% protection (v 1 μM TTX) (mean ± sem)” value in series [2] is 48%. Also, in series [1] (100 mg/kg po), the “MES Results (% protection)” value was 80%.

As for `N=c1nc(N)c(-c2cccc(Cl)c2Cl)nn1CC(F)(F)C(F)(F)F` [CEN-217], the concentration for half-maximal inhibition (IC50) at hERG (setting [4]) was 26 µM; on hERG (setting [5]) it was 25.7 µM; at Sodium Channel, Site 2 (setting [6]), below 0.5 µM; on Sodium Channel, Site 2 (setting [7]) it was below 0.5 µM. Further, at hERG, the inhibition at 10 µM was 28%. The “[3H]BTX-B binding % inhibition (@ 10 μM)” value in the series on Sodium Channel, Site 2 was 105%. The “Rat MES (anticonvulsant in vivo) % protection” value in series [1] (100 mg/Kg (free base) po) is 60% and 60 @ 100%. Further, the “MES Results (% protection)” value in series [1] (100 mg/kg po) amounted to 60%. In addition, the ED50 in series [1] (setting [8]) was around 80 mg/kg.

For the compound `N=c1nc(N)c(-c2cccc(Cl)c2Cl)nn1CC(Cl)(Cl)Cl` [CEN-216, 5(3)-Amino-6-(2,3-dichlorophenyl)-2,3(2,5)-dihydro-3(5)-imino-2-(2,2,2-trichloroethyl)-1,2,4-triazine trifluoromethanesulphonate], the IC50 was 50 µM at hERG (setting [4]); 73.3 µM at hERG (setting [5]); 27 µM at L-Type Calcium Channels (extrapolated, read-out: extrapolated IC50 in L-type Calcium (phenylalkylamine site) binding assay); 27 µM on L-Type Calcium Channels (read-out: L-type Ca2+ IC50 (μM) (extrapolated from 10 μM inh'n), extrapolated from 10 μM inhibition, slope assumed 1.0); 20 µM on Sodium Channel, Site 2 (setting [6]); 13.8 µM on Sodium Channel, Site 2 (setting [7]). On hERG, the inhibition at 10 µM is 12%. Moreover, in the series on L-Type Calcium Channels (10 μM), the “L-type Ca2+ % inhibition @ 10 μM” value is on record as 27%. Besides, in “Microsome stability”, the “Microsome stability (human) % metabolized (40 min incubation 37°)” value is on record as 0%. Besides, in the series on Sodium Channel, Site 2, the “[3H]BTX-B binding % inhibition (@ 10 μM)” value was 42%. The “MES Results (% protection)” value amounted to 0% in series [1] (1 mg/kg po); 0% in series [1] (3 mg/kg po); 80% in series [1] (10 mg/kg po); 100% in series [1] (30 mg/kg po); 100% in series [1] (100 mg/kg po). Further, in series [1] (10 mg/Kg (free base) po), the “Rat MES (anticonvulsant in vivo) % protection” value stood at 80%. Also, the ED50 in series [1] (1 h, free base, dosed orally one hour prior to shock, read-out: Rat MES ED50 (effective dose to protect 50% of rats)) was around 9 mg/kg; in series [1] (read-out: Rat MES ED50) it was 9 mg/kg. In addition, in series [3], the “duration of action following po dose in mouse” value is “long duration of action”. Moreover, the “Mouse MES % protection” value in series [3] (1 h prior to shock), in series [3] (6 h prior to shock) and in series [3] (24 h prior to shock) was 100% in each case.
